Data taken from patent US20160362463A1, “Pharmaceutical composition inhibiting interaction between MZF-1 and Elk-1” (China Medical University, priority 2015, published 2016).
Read-outs that look alike come from different tables or passages of the source. No end group written: not given here.

Experiments:
Hs578T cells = assay: MTT cell viability with anti-cancer drugs, Hs578T cells; type: cell-based, human
MDA-MB-231 cells = assay: MTT cell viability with anti-cancer drugs, MDA-MB-231 cells; type: cell-based, human; details: read-out: 50% inhibitory concentration (IC50), cell viability
Description: The level of multidrug resistance protein permeability glycoprotein (P-gp) was determined by upper panel. Cell growth was determined using the MTT assay 2 days after treatment (lower panel).
Cell proliferation was analyzed using the yellow tetrazolium (MTT) assay. Cells were seeded in 24-well plates at 1×10^4 cells/well and cultured in DMEM containing 10% FCS at 37° C. overnight. Cells were treated with or without various plasmids and incubated for 24 or 48 h. After incubation, the medium was replaced with fresh medium, and the cells were incubated with 1 mg/ml MTT for 3 h before being dissolved in 1 ml of DMSO for 30 min. The optical density at 570 nm was measured using a spectrophotometer.
To determine if MZF-160-72 peptide-mediated decrease in P-gp expression sensitizes breast cancer cells to chemotherapeutic agents, MZF-160-72-expressing MDA-MB-231 stable cells were treated with acriflavine and cisplatin (commonly used to treat breast cancer-insert) and their cell viability measured.

[1] = molecular target: T1, Elk-1 and MZF-1 DNA-binding activity at the PKCα promoter (Homo sapiens, UniProt P19419+P28698); assay: EMSA of Elk-1 and MZF-1 binding to PKCα promoter probe, nuclear extracts of transfected HEK-293 cells; type: biochemical; details: biotin-labeled WT PKCα promoter probe
T1 construct: Primers and restriction enzyme (R.E.) sites for the full-length and truncated MZF-1, Elk-1; expressed in transfected cells; host or cells: HEK-293 (nuclear extracts)
Description: The biotin-labeled WT oligonucleotide probes were incubated with the indicated concentration of nuclear extracts of the different-treated HEK-293 cells, which were transfected with empty vector, Elk-1, MZF-1, MZF-160-72 or mutant MZF-160-72 and the reactions were resolved on a nondenaturing polyacrylamide gel. DNA-protein complexes are indicated by the black arrow-head.
The biotin-labeled wild-type oligonucleotide probes were incubated with the indicated concentration of nuclear extracts of the different-treated HEK-293 cells, which were transfected with empty vector, Elk-1, MZF-1, Elk-1145-157 or mutant Elk-1145-157.
EMSA analysis was performed using a LightShift™ chemiluminescent EMSA kit (Pierce). 15 μg of nuclear extract was used for each EMSA analysis. […] The membrane was immediately cross-linked at 120 mJ/cm^2 using an UV transilluminator and then analyzed via chemiluminescence according to the manufacturer's instructions.

MZF-1/Elk-1 interaction = molecular target: T2, MZF-1/Elk-1 interaction (Homo sapiens, UniProt P19419+P28698); assay: Co-immunoprecipitation of MZF-1 and Elk-1 in HEK-293 lysates with added TAT-fused peptides; type: binding; details: 50, 100 and 150 nmol peptide added to lysates, overnight at 4° C.
T2 construct: FLAG-Elk-1; 1-428; MZF-1-c-Myc; 1-485; His (from the myc-His vector) (C); expressed in transfected cells; host or cells: HEK-293 (lysates)
Description: HEK-293 cells were transfected with empty vector, FLAG-Elk-1, MZF-1-c-Myc, FLAG-MZF-1 or Elk-1-cMyc construct. ‘+’ indicates the presence of each item and ‘-’ indicates their absence. Different concentrations (50, 100 and 150 nmol) of TAT-fused peptides (normal or mutant) were then added to the lysates and incubated overnight at 4° C. and then subjected to immunoprecipitation with anti-c-Myc antibody, followed by immunoblotting against FLAG and c-Myc. Lysates of HEK-293 cells transfected with FLAG-Elk-1 or FLAG-MZF-1 vector indicated as a “Input”.

[2] = tested on: Hs578T and MDA-MB-231 cells; assay: Immunoblotting of protein levels in TAT-fused peptide-treated cells; type: cell-based, human; details: three days post-treatment
Excerpt: (§1) The TAT-fused peptides were designed such that the TAT moiety corresponds to amino acid residues 48-57 of the HIV TAT protein, the MZF-160-72 moiety corresponds to residue 60-72 of the human MZF-1 protein and the Elk-1145-157 moiety corresponds to residues 145-157 of the human Elk-1 protein. The TAT and MZF-1/Elk-1 moieties were linked by three glycine linker residues. The TAT-fused peptide MZF-1 normal fragment (60-72; […] as SEQ ID NO: 57), MZF-1 mutant fragment (60-72; […] as SEQ ID NO: 58), Elk-1 normal fragment (145-157; […] as SEQ ID NO: 59), and Elk-1 mutant fragment (145-157; […] as SEQ ID NO: 60) were synthesized by MDBio, Inc. (Taipei, Taiwan). For transduction of the TAT fusion proteins cells were cultured to 50-60% confluence. The culture medium was removed and replaced with fresh, serum-free medium, followed by the addition of the TAT fusion proteins at the indicated concentrations. Three days post-treatment the cells were used for migration assays and western blotting.

[3] = tested on: Hs578T and MDA-MB-231 cells; assay: Cell migration assay after treatment with TAT-fused peptides; type: cell-based, human; details: 3 days after addition of the peptides
Description: The cell migration assay was performed 3 days after the addition of the peptides to the cells.
as §1
The migration assay was performed using a 48-well Boyden chamber (Neuro Probe) plated with 8-μm pore size polycarbonate membrane filters (Neuro Probe). […] The migratory phenotypes were determined by counting the cells that migrated to the lower side of the filter through microscopy at 200× magnification.

Elk-1 = molecular target: T3, Elk-1 (Homo sapiens, UniProt P19419); assay: Co-immunoprecipitation of MZF-1-c-Myc fragments with FLAG-Elk-1 in transfected HEK-293 cells; type: binding; details: FLAG-Elk-1 plus c-Myc fragment
T3 construct: FLAG-Elk-1; 1-428; expressed in transfected cells; host or cells: HEK-293
T3 sequence (P19419 1-428): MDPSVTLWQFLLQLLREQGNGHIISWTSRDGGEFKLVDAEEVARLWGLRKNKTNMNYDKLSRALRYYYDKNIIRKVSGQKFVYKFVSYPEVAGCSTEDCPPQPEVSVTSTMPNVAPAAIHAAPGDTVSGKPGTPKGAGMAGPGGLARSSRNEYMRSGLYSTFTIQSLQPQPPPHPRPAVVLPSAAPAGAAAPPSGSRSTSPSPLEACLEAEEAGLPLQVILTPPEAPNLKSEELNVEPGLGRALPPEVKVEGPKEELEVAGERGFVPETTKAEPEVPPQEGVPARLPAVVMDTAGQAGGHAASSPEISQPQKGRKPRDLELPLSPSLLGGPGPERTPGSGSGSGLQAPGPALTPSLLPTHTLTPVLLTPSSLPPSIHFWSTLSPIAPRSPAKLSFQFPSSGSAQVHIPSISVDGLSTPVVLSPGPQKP
Description: Red bands indicate the fragments that bound Elk-1 as present in the co-immunoprecipitation assay (lower panel). HEK-293 cells were transfected with 5 μg FLAG-Elk-1 and either empty vector or the indicated MZF-1-c-Myc fragment. The c-Myc-fused peptides were Immunoprecipitation by c-Myc monoclonal antibody and then Immunoblotting with the anti-FLAG antibodies. Lysates of HEK-293 cells transfected with the FLAG-Elk-1 only were also Immunoblotting as a control (Input).
MZF-1 contains an acidic domain (amino acids 60-72) with six aspartates or glutamates upstream of the zinc finger regions. To identify the specific residues through which MZF-1 interacts with Elk-1 we designed various protein fragments containing only the relevant interacting domains for co-immunoprecipitation assays (FIG. 14, top). The full-length MZF-1 and MZF-11-72, MZF-11-141, and MZF-160-72 fragments (all contain the acidic domain) all bound Elk-1 (FIG. 14, lower panel) but not MZF-11-60 or MZF-173-485.

[4] = molecular target: T4, FLAG-MZF-1 (amino acids 1-485) (human, UniProt P28698-2 1-485); assay: co-immunoprecipitation, HEK-293 cells
T4 construct: range 1-485; Full-length MZF-1 expressed in HEK-293 cells; not shown: FLAG tag

[5] = molecular target: T5, FLAG-Elk-1 (amino acids 1-428) (human, UniProt P19419 1-428); assay: co-immunoprecipitation (anti-c-Myc IP, anti-FLAG blot), HEK-293 cells
T5 construct: range 1-428; Full-length Elk-1 expressed in HEK-293 cells; not shown: FLAG tag
T5 sequence (looked up): T3 sequence (P19419 1-428)

[6] = Hs578T cells before MZF-160-72 expression (parental)
[7] = MZF-160-72-expressing Hs578T cells
[8] = MDA-MB-231 cells before MZF-160-72 expression (parental)
[9] = MZF-160-72-expressing MDA-MB-231 stable cells

T1 sequence (P28698 1-485 isoform P28698-2, one chain of several): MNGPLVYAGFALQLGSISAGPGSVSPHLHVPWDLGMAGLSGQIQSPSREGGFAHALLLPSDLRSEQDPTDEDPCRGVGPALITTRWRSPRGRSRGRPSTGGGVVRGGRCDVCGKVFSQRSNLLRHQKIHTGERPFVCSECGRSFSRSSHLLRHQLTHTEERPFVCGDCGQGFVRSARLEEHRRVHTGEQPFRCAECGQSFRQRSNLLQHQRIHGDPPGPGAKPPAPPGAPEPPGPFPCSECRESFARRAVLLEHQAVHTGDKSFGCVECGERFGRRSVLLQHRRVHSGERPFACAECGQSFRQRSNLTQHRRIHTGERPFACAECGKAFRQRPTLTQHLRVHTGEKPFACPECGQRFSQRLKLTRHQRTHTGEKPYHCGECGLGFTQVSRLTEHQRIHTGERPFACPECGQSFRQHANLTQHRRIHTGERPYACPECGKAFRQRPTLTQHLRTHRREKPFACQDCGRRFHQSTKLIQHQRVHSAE
T2 sequence (P28698 1-485 isoform P28698-2, one chain of several): as above

Q: With `N.N.[Cl][Pt][Cl]` [cisplatin] as the molecule, how does the IC50 (Hs578T cells; [6]) read?
A: The IC50 was 28 µM.

Q: And the IC50 (Hs578T cells; [7])?
A: Its IC50 is 21.1 µM.

Q: What about the IC50 (MDA-MB-231 cells; [8]) of the same molecule?
A: Its IC50 is 23.7 µM.

Q: And the IC50 (MDA-MB-231 cells; [9])?
A: The IC50 was 16.2 µM.

Q: “Elk-1145-157: Heparin-binding domain fragment, amino acids 145-157 of human Elk-1; expressed as c-Myc-fused fragment (LARSSRNEYMRSG; also: c-Myc tag fusion; listed as Homo sapiens)” was tested. Which “Elk-1 and MZF-1 DNA-binding activity (EMSA)” value [1] did it give?
A: The value was “decreased Elk-1 and MZF-1 DNA-binding activity in a dose-dependent manner”.

Q: Which results are given for “YGRKKRRQRRRGGGDEDTPDQESRLDS (listed as Homo sapiens) [TAT-MZF-160-72, TAT-fused peptide MZF-1 normal fragment (60-72), three glycine linker residues]”?
A: binding of MZF-1 to Elk-1 and vice versa (co-immunoprecipitation) (MZF-1/Elk-1 interaction): reduced the binding of MZF-1 to Elk-1 and vice versa in a dose-dependent manner; levels of EMT-related (PKCα, Slug and Vimentin) proteins [2]: noticeably increased; levels of MET-related (E-cadherin) proteins [2]: decreased; cell migration [3]: reduced cell migration

Q: With “YGRKKRRQRRRGGGLARSSRNEYMRSG (listed as Homo sapiens) [TAT-Elk-1145-157, TAT-fused peptide Elk-1 normal fragment (145-157), three glycine linker residues]” as the molecule, how does the “binding of MZF-1 to Elk-1 and vice versa (co-immunoprecipitation)” value (MZF-1/Elk-1 interaction) read?
A: Its value is “reduced the binding of MZF-1 to Elk-1 and vice versa in a dose-dependent manner”.

Q: And the “levels of EMT-related (PKCα, Slug and Vimentin) proteins” value [2]?
A: The value was “noticeably increased”.

Q: And the “levels of MET-related (E-cadherin) proteins” value [2]?
A: The value was “decreased”.

Q: What about the cell migration [3] of the same molecule?
A: Its cell migration is “reduced cell migration”.

Q: Which IC50 (Hs578T cells; [6]) does the source give for acriflavine here?
A: Its IC50 is 2.56 µM.

Q: What about the IC50 (Hs578T cells; [7]) of the same molecule?
A: The IC50 was 1.33 µM.

Q: And the IC50 (MDA-MB-231 cells; [8])?
A: Its IC50 is 2.43 µM.

Q: And the IC50 (MDA-MB-231 cells; [9])?
A: Its IC50 is 1.49 µM.

Q: Which “Elk-1 and MZF-1 DNA-binding activity (EMSA)” value [1] does the source give for “mutant MZF-160-72: MZF-1 60-72 fragment with aspartates D61, D67, D70 and D72 changed to uncharged alanine” here?
A: The value was “did not affect their binding activity”.

Q: And the “binding to Elk-1 (co-immunoprecipitation)” value (Elk-1)?
A: Its value is “substantially decreased”.

B1: Elk-1-c-Myc fragment, amino acids 145-157 (Mutant) (peptide, UniProt P19419 145-157, looked up)
chain: LAASSANEYMASG
notes: not shown: c-Myc(-His) tag from the pcDNA3.1/myc-His vector
Q: Does B1 bind [4]?
A: Result: no binding

B2: MZF-1-c-Myc fragment, amino acids 1-60 (other, human, UniProt P28698-2 1-60, looked up)
chain: MNGPLVYAGFALQLGSISAGPGSVSPHLHVPWDLGMAGLSGQIQSPSREGGFAHALLLPS
notes: range 1-60; Expressed in HEK-293 cells; also called MZF-11-60; not shown: c-Myc(-His) tag from the pcDNA3.1/myc-His vector
Q: Does B2 bind [5]?
A: Result: no binding
